From ChEMBL document CHEMBL4765450, “The components and activities analysis of a novel anticoagulant candidate dHG-5” (Eur J Med Chem, 2020)
Activity calls are given as the source filed them. No cut-off for these calls is given here.

Legend:
[1] = system: Plasma; experiment: Induction of platelet aggregation in human platelet rich plasma at plasma peak concentration of 10 times anti-thrombosis ED50 measured after 10 mins by light transmission aggregometry
[2] = molecular target: Coagulation factor IX/VIII (Homo sapiens, UniProt P00451+P00740); experiment: Inhibition of human citrated plasma iXase (factor 8a-factor 9a complex) preincubated for 2 mins followed by factor 10 addition and measured after 1 min by FXa chromogenic substrate SXa-11 based assay; type: protein-complex assay
Coagulation factor IX/VIII, sequence (P00451 20-759 limits assumed): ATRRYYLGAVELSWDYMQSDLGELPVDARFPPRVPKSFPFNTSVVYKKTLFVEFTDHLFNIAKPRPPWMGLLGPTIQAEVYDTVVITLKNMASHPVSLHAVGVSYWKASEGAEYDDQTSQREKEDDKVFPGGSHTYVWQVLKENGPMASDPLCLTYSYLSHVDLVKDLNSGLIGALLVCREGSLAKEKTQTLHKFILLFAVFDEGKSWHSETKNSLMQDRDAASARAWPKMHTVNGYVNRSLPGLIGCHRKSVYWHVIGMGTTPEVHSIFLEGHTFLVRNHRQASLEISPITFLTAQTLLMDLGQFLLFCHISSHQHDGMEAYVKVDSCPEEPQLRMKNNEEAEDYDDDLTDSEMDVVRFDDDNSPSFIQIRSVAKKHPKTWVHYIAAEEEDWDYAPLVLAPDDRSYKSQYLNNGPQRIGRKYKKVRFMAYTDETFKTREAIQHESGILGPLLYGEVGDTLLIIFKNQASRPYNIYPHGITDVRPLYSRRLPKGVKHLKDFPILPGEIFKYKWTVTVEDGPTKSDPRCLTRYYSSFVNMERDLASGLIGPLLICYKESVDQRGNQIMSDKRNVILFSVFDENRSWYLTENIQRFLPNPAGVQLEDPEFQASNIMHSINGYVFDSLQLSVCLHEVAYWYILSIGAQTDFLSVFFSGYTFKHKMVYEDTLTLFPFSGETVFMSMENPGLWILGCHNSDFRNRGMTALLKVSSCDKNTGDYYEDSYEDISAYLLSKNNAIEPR
Coagulation factor IX/VIII, sequence (P00451 1668-2351 limits assumed): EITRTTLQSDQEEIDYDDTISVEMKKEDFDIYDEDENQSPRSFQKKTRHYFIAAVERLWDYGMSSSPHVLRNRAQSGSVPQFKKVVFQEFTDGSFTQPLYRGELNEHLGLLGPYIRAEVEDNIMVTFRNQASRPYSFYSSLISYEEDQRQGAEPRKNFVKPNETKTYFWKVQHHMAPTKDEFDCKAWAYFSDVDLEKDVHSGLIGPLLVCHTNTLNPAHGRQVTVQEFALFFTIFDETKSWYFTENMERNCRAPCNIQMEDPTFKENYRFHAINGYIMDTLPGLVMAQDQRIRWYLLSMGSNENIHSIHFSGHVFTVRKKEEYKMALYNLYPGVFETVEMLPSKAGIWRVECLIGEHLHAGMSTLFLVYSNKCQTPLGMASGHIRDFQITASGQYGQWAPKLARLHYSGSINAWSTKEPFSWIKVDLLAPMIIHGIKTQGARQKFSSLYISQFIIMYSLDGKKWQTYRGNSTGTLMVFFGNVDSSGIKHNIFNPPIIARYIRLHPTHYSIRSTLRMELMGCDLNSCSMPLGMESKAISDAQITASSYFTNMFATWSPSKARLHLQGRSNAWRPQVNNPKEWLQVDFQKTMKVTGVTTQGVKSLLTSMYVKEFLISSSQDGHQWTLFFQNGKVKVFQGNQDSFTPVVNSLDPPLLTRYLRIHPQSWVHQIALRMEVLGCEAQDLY
Coagulation factor IX/VIII, sequence (P00740 47-191 limits assumed): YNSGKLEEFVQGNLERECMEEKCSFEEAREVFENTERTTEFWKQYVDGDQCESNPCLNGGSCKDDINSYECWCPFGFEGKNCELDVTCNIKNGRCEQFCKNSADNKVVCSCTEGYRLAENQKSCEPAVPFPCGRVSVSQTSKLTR
Coagulation factor IX/VIII, sequence (P00740 227-461 limits assumed): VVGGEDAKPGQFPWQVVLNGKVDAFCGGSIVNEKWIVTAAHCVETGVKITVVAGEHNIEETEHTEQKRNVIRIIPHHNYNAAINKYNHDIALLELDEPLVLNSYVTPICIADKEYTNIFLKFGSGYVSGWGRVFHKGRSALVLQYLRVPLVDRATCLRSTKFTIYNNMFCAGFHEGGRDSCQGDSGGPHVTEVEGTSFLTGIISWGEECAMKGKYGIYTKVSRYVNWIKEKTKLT

[3] = molecular target: Coagulation factor IX (Homo sapiens, UniProt P00740); experiment: Inhibition of factor 9a (unknown origin) binding to immobilized biotinylated oHG-11 by biolayer interferometry
Coagulation factor IX, sequence (P00740 47-191 limits assumed): as the sequence (P00740 47-191 limits assumed) above
Coagulation factor IX, sequence (P00740 227-461 limits assumed): as the sequence (P00740 227-461 limits assumed) above

[4] = molecular target: Prothrombin (Homo sapiens) (UniProt P00734); experiment: Inhibition of factor 2a (unknown origin) at IC50 preincubated for 1 min followed by chromogenic substrate addition and measured for 2 mins; conditions: time 3.0 min
[5] = molecular target: Coagulation factor XI (Homo sapiens) (UniProt P03951); experiment: Inhibition of factor 11a (unknown origin) at IC50 using S-2366 as substrate preincubated for 1 min followed by chromogenic substrate addition and measured for 2 mins; conditions: time 3.0 min
Coagulation factor XI (Homo sapiens), sequence (P03951 19-387 limits assumed): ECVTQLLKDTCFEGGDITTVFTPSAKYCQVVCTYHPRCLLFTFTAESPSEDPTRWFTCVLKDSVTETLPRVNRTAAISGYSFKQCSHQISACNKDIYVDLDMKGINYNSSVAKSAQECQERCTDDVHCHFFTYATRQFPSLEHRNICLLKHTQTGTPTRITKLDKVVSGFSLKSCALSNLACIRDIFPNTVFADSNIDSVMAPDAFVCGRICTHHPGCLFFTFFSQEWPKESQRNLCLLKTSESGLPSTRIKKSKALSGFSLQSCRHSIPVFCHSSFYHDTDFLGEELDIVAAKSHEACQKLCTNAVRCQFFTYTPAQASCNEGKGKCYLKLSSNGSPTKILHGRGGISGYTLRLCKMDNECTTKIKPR
Coagulation factor XI (Homo sapiens), sequence (P03951 388-625 limits assumed): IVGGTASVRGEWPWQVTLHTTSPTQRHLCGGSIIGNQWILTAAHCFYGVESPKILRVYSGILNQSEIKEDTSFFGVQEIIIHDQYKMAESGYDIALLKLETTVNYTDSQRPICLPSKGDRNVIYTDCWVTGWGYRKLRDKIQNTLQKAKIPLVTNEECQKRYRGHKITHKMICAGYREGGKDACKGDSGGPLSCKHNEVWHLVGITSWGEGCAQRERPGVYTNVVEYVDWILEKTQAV

[6] = molecular target: T1, Coagulation factor XII (Homo sapiens) (UniProt P00748); experiment: Inhibition of factor 12a (unknown origin) at IC50 using kallikrein chromogenic substrate preincubated for 1 min followed by chromogenic substrate addition and measured for 2 mins; conditions: time 3.0 min
T1 sequence (whole entry): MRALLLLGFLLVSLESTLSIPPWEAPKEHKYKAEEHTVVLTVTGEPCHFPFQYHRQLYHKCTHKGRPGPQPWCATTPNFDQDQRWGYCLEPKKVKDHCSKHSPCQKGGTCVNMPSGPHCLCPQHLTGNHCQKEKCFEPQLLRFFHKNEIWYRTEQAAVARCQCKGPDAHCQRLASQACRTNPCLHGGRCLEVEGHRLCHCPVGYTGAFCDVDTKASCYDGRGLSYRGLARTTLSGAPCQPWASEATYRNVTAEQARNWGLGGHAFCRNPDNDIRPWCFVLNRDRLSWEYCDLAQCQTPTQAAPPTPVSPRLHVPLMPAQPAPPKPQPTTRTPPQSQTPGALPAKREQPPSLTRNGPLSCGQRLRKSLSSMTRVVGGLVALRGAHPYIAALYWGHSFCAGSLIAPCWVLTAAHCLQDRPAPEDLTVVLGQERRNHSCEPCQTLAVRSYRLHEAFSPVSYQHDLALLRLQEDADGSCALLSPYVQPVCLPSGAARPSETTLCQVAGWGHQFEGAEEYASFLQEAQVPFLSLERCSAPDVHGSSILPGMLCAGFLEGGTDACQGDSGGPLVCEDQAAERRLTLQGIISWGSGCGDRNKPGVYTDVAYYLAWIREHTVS

[7] = molecular target: Prothrombin (Homo sapiens) (UniProt P00734); experiment: Inhibition of factor 2a (unknown origin) at IC50 preincubated for 1 min followed by chromogenic substrate addition and measured for 2 mins in presence of AT-III; conditions: time 3.0 min
[8] = molecular target: T2, Coagulation factor VII (Homo sapiens) (UniProt P08709); experiment: Inhibition of factor 7a (unknown origin) at IC50 using pefachrome factor VIIa as substrate preincubated for 1 min followed by chromogenic substrate addition and measured for 2 mins in presence of AT-III; conditions: time 3.0 min
T2 sequence (whole entry): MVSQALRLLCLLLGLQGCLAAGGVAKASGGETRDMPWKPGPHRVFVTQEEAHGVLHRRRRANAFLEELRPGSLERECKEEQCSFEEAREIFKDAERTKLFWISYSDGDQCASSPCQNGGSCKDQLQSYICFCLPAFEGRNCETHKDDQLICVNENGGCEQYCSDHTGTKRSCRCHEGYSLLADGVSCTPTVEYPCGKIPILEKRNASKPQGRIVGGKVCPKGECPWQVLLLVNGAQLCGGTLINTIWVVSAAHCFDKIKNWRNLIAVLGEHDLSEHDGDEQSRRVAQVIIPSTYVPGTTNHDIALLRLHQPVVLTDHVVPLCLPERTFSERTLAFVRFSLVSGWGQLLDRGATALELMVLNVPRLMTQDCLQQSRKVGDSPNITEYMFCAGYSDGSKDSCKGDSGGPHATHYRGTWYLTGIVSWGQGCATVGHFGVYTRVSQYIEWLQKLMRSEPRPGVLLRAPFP

[9] = molecular target: Coagulation factor X (Homo sapiens) (UniProt P00742); experiment: Inhibition of factor 10a (unknown origin) at IC50 preincubated for 1 min followed by chromogenic substrate addition and measured for 2 mins in presence of AT-III; conditions: time 3.0 min
Coagulation factor X (Homo sapiens), sequence (P00742 41-179 limits assumed): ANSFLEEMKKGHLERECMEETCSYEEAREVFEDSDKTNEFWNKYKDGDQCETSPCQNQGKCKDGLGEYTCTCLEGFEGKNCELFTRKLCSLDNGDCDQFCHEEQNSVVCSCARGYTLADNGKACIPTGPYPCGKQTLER
Coagulation factor X (Homo sapiens), sequence (P00742 235-488 limits assumed): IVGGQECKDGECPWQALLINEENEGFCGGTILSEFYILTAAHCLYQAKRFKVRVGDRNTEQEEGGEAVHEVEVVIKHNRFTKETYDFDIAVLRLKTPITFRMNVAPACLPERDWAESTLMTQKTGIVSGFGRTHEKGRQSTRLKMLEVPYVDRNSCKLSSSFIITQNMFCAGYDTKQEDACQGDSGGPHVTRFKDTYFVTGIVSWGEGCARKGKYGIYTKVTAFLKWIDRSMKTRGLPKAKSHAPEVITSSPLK

[10] = molecular target: Coagulation factor XI (Homo sapiens) (UniProt P03951); experiment: Inhibition of factor 11a (unknown origin) at IC90 using S-2366 as substrate preincubated for 1 min followed by chromogenic substrate addition and measured for 2 mins in presence of AT-III; conditions: time 3.0 min
[11] = molecular target: Coagulation factor X (Homo sapiens) (UniProt P00742); experiment: Inhibition of factor 10a (unknown origin) at IC90 preincubated for 1 min followed by chromogenic substrate addition and measured for 2 mins in presence of AT-III relative to control; conditions: time 3.0 min
[12] = system: Rattus norvegicus; experiment: Antithrombotic activity in thromboplastin and stasis-induced Sprague-Dawley rat deep venous thrombosis model assessed as reduction in venous thrombosis at 2.7 mg/kg, sc administered 1 hr prior to thromboplastin addition for 20 secs followed by establishment of stasis for 20 mins; type: functional; set-up: scale not given: the % may be the effect or the level left; conditions: time 80.33 min, 1.339 h
[13] = Toxicity in Kunming mouse tail bleeding model assessed as blood loss at 73.01 mg/kg, sc measured after 1 hr by UV-vis spectrophotometry; type: organism-based; conditions: in vivo
[14] = system: Plasma; experiment: Induction of platelet aggregation in rat wash platelet at plasma peak concentration of 10 times anti-thrombosis ED50 measured after 10 mins by light transmission aggregometry
[15] = system: Mus musculus; experiment: Anticoagulation activity in Kunming mouse assessed as APTT-prolonging effect by measuring time for maximum effect at 1.7 mg/kg, sc measured after 0.5 to 8 hrs by APTT reagent based assay; type: functional; conditions: time 0.5-8 hrs
[16] = Tmax in Kunming mouse at 1.7 mg/kg, sc; type: ADME, organism-based; conditions: in vivo
[17] = MRT (0 to 8 hrs) in Kunming mouse at 1.7 mg/kg, sc; type: ADME, organism-based; conditions: in vivo
[18] = MRT (0 to infinity) in Kunming mouse at 1.7 mg/kg, sc; type: ADME, organism-based; conditions: in vivo
[19] = system: Mus musculus; experiment: Anticoagulation activity in Kunming mouse assessed as APTT-prolonging effect by measuring time for maximum effect at 5.11 mg/kg, sc measured after 0.5 to 8 hrs by APTT reagent based assay; type: functional; conditions: time 0.5-8 hrs
[20] = Tmax in Kunming mouse at 5.11 mg/kg, sc; type: ADME, organism-based; conditions: in vivo
[21] = MRT (0 to 8 hrs) in Kunming mouse at 5.11 mg/kg, sc; type: ADME, organism-based; conditions: in vivo
[22] = MRT (0 to infinity) in Kunming mouse at 5.11 mg/kg, sc; type: ADME, organism-based; conditions: in vivo
[23] = Half life in Kunming mouse at 5.11 mg/kg, sc; type: ADME, organism-based; conditions: in vivo
[24] = system: Mus musculus; experiment: Anticoagulation activity in Kunming mouse assessed as APTT-prolonging effect by measuring time for maximum effect at 15.3 mg/kg, sc measured after 0.5 to 8 hrs by APTT reagent based assay; type: functional; conditions: time 0.5-8 hrs
[25] = MRT (0 to 8 hrs) in Kunming mouse at 15.3 mg/kg, sc; type: ADME, organism-based; conditions: in vivo
[26] = MRT (0 to infinity) in Kunming mouse at 15.3 mg/kg, sc; type: ADME, organism-based; conditions: in vivo

## CC(=O)N[C@H]1[C@H](O[C@H]2[C@H](O[C@@H]3O[C@@H](C)[C@@H](OS(=O)(=O)[O-])[C@@H](O)[C@@H]3OS(=O)(=O)O)[C@@H](O)[C@H](O[C@H]3[C@@H](NC(C)=O)[C@H](O[C@H]4[C@H](O[C@@H]5O[C@@H](C)[C@@H](OS(=O)(=O)[O-])[C@@H](O)[C@@H]5OS(=O)(=O)O)[C@@H](O)[C@H](O[C@H]5[C@@H](NC(C)=O)[C@H](O[C@H]6[C@H](O[C@@H]7O[C@@H](C)[C@@H](OS(=O)(=O)[O-])[C@@H](O)[C@@H]7OS(=O)(=O)O)[C@@H](O)[C@H](O[C@H]7[C@@H](NC(C)=O)[C@H](O[C@H]8[C@H](O[C@@H]9O[C@@H](C)[C@@H](OS(=O)(=O)[O-])[C@@H](O)[C@@H]9OS(=O)(=O)O)[C@@H](O)[C@H](O[C@H]9[C@@H](NC(C)=O)[C@H](O[C@@H]([C@H](O[C@@H]%10O[C@@H](C)[C@@H](OS(=O)(=O)[O-])[C@@H](O)[C@@H]%10OS(=O)(=O)O)[C@@H](O)CO)[C@H](O)C(=O)[O-])O[C@H](COS(=O)(=O)[O-])[C@@H]9OS(=O)(=O)[O-])O[C@@H]8C(=O)[O-])O[C@H](COS(=O)(=O)[O-])[C@@H]7OS(=O)(=O)[O-])O[C@@H]6C(=O)[O-])O[C@H](COS(=O)(=O)[O-])[C@@H]5OS(=O)(=O)[O-])O[C@@H]4C(=O)[O-])O[C@H](COS(=O)(=O)[O-])[C@@H]3OS(=O)(=O)[O-])O[C@@H]2C(=O)[O-])O[C@H](COS(=O)(=O)[O-])[C@H](OS(=O)(=O)[O-])[C@@H]1O[C@@H]1OC(C(=O)[O-])=C[C@H](O[C@@H]2O[C@@H](C)[C@@H](OS(=O)(=O)[O-])[C@@H](O)[C@@H]2OS(=O)(=O)O)[C@H]1O.[Na+].[Na+].[Na+].[Na+].[Na+].[Na+].[Na+].[Na+].[Na+].[Na+].[Na+].[Na+].[Na+].[Na+].[Na+].[Na+].[Na+].[Na+].[Na+].[Na+].[Na+].[Na+]
[1]
  Activity: Not Active
[2]
  IC50: 14 nM
[3]
  IC50: 430 nM
[4]
  inhibition: inactive
[5]
  inhibition: inactive
[6]
  inhibition: inactive
[7]
  inhibition: inactive
[8]
  inhibition: inactive
[9]
  inhibition: inactive
[10]
  inhibition: Active
[11]
  inhibition: inactive
[12]
  Activity: 60.7%
[13]
  Activity: 139 µL
[14]
  Activity: Not Active
[15]
  Emax: 4.39 s
[16]
  Tmax: 1.17 h
[17]
  MRT last: 1.99 h
[18]
  MRT inf: 2.21 h
[19]
  Emax: 7.68 s
[20]
  Tmax: 0.75 h
[21]
  MRT last: 1.52 h
[22]
  MRT inf: 1.52 h
[23]
  half-life: 0.563 h
[24]
  Emax: 20.2 s
[25]
  MRT last: 1.66 h
[26]
  MRT inf: 1.71 h
